Data published in ChEMBL document CHEMBL1201862, “PubChem BioAssay data set” (2004).
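96-well plates; 48 h exposure; 5 concentrations. Endpoints by linear interpolation between flanking doses. Not reached: highest tested concentration assigned. GI50 = concentration required for 50% inhibition of growth.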 The source made the active and inactive calls. Cut-off read from the data, not from the text of the source: active = GI50 up to about 1.1 µM and inactive = higher.

Assays:
Experiment in all cases: NCI anticancer screen, dose series, 48 h
DU-145 = test system: DU-145
OVCAR-3 = test system: OVCAR-3
NCI/ADR-RES = test system: NCI/ADR-RES
NCI-H522 = test system: NCI-H522
EKVX = test system: EKVX
LOX IMVI = test system: LOX IMVI
NCI-H226 = test system: NCI-H226
K562 = test system: K562
RXF 393 = test system: RXF 393
A549 = test system: A549
SW-620 = test system: SW-620
SK-MEL-5 = test system: SK-MEL-5
SK-MEL-28 = test system: SK-MEL-28
OVCAR-8 = test system: OVCAR-8
NCI-H460 = test system: NCI-H460
Malme-3M = test system: Malme-3M
UO-31 = test system: UO-31
IGROV-1 = test system: IGROV-1
OVCAR-4 = test system: OVCAR-4
BT-549 = test system: BT-549

Measured: GI50

O=c1[nH]c(=O)n(COCCO)c2ccsc12
inactive: DU-145 > 100 µM | OVCAR-3 > 100 µM | NCI/ADR-RES > 100 µM | NCI-H522 > 100 µM | EKVX > 100 µM | LOX IMVI > 100 µM | NCI-H226 > 100 µM | K562 > 100 µM | RXF 393 > 100 µM | A549 > 100 µM | SW-620 > 100 µM | SK-MEL-5 > 100 µM | SK-MEL-28 > 100 µM | OVCAR-8 > 100 µM | NCI-H460 > 100 µM | Malme-3M > 100 µM | UO-31 > 100 µM | IGROV-1 > 100 µM | OVCAR-4 > 100 µM | BT-549 > 100 µM

COc1cccc(-c2nnc3c(-c4ccccc4)nc4ccccc4n23)c1
inactive: DU-145 42.5 µM | OVCAR-3 12.7 µM | NCI/ADR-RES 14.4 µM | NCI-H522 3.37 µM | EKVX 55.2 µM | LOX IMVI 63.5 µM | NCI-H226 57.3 µM | K562 4.11 µM | RXF 393 8.38 µM | A549 21.2 µM | SW-620 16.4 µM | SK-MEL-5 14 µM | SK-MEL-28 > 77.4 µM | OVCAR-8 45.2 µM | NCI-H460 10.3 µM | Malme-3M 10.9 µM | UO-31 10.5 µM | IGROV-1 21.6 µM | OVCAR-4 9.86 µM | BT-549 35.9 µM

COc1ccc(/C=C2\CCC(CNc3ccc(Br)cc3)C2=O)cc1 (stereo not given)
inactive: DU-145 > 100 µM | OVCAR-3 > 100 µM | NCI/ADR-RES > 100 µM | NCI-H522 > 10 µM | EKVX > 100 µM | LOX IMVI 25.9 µM | NCI-H226 > 100 µM | K562 20 µM | RXF 393 > 100 µM | A549 93.8 µM | SW-620 67.3 µM | SK-MEL-5 80.9 µM | SK-MEL-28 > 100 µM | OVCAR-8 > 100 µM | NCI-H460 76 µM | Malme-3M > 100 µM | UO-31 73.8 µM | IGROV-1 > 100 µM | OVCAR-4 > 100 µM | BT-549 88.7 µM
